Assay results from ChEMBL document CHEMBL6120940, “Discovery of N-Aryl-N'-[4-(aryloxy)cyclohexyl]squaramide-Based Inhibitors of LXR/SREBP-1c Signaling Pathway Ameliorating Steatotic Liver Disease: Navigating the Role of SIRT6 Activation” (J Med Chem, 2024).
Calls of active or inactive are those of the source. The rule behind the calls is not given here.

Tests used:
[1] = Terminal half life in 16 hrs fasted ICR mouse at 2 mg/kg, iv measured upto 8 hrs by LC-MS/MS analysis; assay type: ADME, organism-based; details: in vivo, read-out: beta t1/2 (converted)
Mus musculus [2] = test: Anti-lipogenic activity against high fat died induced male C57BL/6J mouse obesity model assessed as reduction liver tissue size at 15 mg/kg, po administered three times per week and measured for 5 weeks; assay type: functional, organism-based
[3] = target: Voltage-gated inwardly rectifying potassium channel KCNH2 (Homo sapiens, UniProt Q12809); test: Inhibition of human ERG expressing HEK cells by whole-cell patch clamp assay; assay type: toxicity, cell-based
Chain of Voltage-gated inwardly rectifying potassium channel KCNH2 (Q12809 whole entry): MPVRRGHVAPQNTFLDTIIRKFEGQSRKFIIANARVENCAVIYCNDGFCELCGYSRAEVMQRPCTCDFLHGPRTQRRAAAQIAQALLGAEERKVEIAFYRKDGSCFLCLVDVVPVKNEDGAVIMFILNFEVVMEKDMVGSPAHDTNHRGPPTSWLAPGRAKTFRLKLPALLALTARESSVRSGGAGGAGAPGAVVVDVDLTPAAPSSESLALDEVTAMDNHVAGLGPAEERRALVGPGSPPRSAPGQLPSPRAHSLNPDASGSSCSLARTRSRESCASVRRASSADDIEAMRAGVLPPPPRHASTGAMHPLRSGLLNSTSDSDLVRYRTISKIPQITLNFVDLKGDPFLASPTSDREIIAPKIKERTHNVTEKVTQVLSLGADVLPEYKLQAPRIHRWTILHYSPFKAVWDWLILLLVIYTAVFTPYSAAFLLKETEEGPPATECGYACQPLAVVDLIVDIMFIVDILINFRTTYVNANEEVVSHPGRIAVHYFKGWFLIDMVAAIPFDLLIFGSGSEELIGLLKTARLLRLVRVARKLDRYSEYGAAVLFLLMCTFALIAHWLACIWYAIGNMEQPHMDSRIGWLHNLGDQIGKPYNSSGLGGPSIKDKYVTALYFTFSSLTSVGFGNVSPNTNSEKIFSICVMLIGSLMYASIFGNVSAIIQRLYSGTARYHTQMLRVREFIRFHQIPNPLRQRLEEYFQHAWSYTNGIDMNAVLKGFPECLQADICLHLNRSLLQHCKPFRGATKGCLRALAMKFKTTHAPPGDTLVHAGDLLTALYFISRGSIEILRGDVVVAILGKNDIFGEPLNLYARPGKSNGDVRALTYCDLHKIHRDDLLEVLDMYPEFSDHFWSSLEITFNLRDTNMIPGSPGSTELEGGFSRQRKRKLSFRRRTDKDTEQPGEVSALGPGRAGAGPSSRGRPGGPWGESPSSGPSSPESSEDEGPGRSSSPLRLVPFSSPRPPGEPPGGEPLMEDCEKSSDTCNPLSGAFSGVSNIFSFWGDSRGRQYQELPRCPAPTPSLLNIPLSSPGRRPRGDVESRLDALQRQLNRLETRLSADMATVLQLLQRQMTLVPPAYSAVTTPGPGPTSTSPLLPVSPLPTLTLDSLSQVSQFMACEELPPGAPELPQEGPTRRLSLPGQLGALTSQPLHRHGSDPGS

HepG2 [4] = test: Downregulation of LXRalpha expression level in human HepG2 cell lysate at 10 uM preincubated with compound for 30 mins followed by T0901317 addition and measured after 24 hrs by immunoblot analysis; assay type: functional, subcellular; details: time 24.5 hrs
Mus musculus [5] = test: Anti-lipogenic activity against high fat died induced male C57BL/6J mouse obesity model assessed as downregulation of Cxcl10 mRNA level at 15 mg/kg, po administered three times per week and measured after 5 weeks by RT-qPCT analysis; assay type: functional, organism-based
Hepatocyte [6] = test: Effect on Acox-1 gene expression in mouse hepatocyte; assay type: functional, cell-based
HepG2 [7] = test: Downregulation of FASN mRNA level in human HepG2 cells at 10 uM pretreated with compound for 30 mins followed by T0901317 addition and measured after 12 hrs by RT-qPCR analysis; assay type: functional, cell-based; details: time 12.5 hrs
Mus musculus [8] = test: Anti-lipogenic activity against high fat died induced male C57BL/6J mouse obesity model assessed as downregulation of scd level at 15 mg/kg, po administered three times per week and measured after 5 weeks by RT-qPCT analysis; assay type: functional, organism-based
Mus musculus [9] = test: Anti-lipogenic activity against high fat died induced male C57BL/6J mouse obesity model assessed as effect on body weight at 15 mg/kg, po administered three times per week and measured for 5 weeks; assay type: functional, organism-based
CYP1A2 = target: T1, CYP1A2 (Homo sapiens, UniProt P05177); test: Inhibition of CYP1A2 in human liver microsomes at 10 uM using phenacetin as substrate preincubated for 5 mins followed by NADPH generating system addition and measured after 15 mins relative to control; assay type: ADME, Microsome; details: probe phenacetin, time 20 min
T1 sequence (P05177 whole entry): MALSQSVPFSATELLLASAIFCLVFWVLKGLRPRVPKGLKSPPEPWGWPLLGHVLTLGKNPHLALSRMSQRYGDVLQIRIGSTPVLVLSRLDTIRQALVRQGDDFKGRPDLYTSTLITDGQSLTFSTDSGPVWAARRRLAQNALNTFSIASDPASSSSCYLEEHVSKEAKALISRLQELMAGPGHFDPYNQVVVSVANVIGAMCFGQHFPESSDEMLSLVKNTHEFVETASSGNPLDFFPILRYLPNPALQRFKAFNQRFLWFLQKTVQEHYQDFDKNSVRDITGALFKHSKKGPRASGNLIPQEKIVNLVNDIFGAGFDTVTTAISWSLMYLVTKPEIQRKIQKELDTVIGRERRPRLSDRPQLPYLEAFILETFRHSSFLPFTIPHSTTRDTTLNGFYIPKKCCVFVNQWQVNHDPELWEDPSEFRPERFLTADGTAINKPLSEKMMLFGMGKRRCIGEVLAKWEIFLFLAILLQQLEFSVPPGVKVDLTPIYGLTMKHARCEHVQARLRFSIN

Hepatocyte [10] = test: Downregulation of Cd36 mRNA level in mouse Hepatocyte at 10 uM incubated for 30 mins followed by T0901317 addition by RT-qPCR analysis; assay type: functional, cell-based
HepG2 [11] = test: Downregulation of LXR level in human HepG2 cells transfected with SIRT6 SiRNA at 10 uM preincubated for 30 mins followed by T0901317 addition and measured after 12 hrs; assay type: functional, cell-based; details: time 12.5 hrs
Mus musculus [12] = test: Anti-lipogenic activity against high fat died induced male C57BL/6J mouse obesity model assessed as reduction hepatic triglyceride level at 15 mg/kg, po administered three times per week and measured for 5 weeks by H and E staining based analysis; assay type: functional, organism-based
HepG2 [13] = test: Downregulation of SREBP-1c expression level in nucleus of human HepG2 cells at 10 uM pretreated with compound for 30 mins followed by GW3965 addition and measured after 12 hrs by immunoblot analysis; assay type: functional, cell-based; details: time 12.5 hrs
[14] = Terminal half life in 16 hrs fasted ICR mouse at 20 mg/kg, po measured upto 8 hrs by LC-MS/MS analysis; assay type: ADME, organism-based; details: in vivo, read-out: beta t1/2 (converted)
HepG2 [15] = test: Lipid lowering effect on palmitic acid induced lipid accumulation in human HepG2 cells at 5 uM incubated for 30 mins by Oil red O staining based analysis; assay type: functional, cell-based
Mus musculus [16] = test: Anti-lipogenic activity against high fat died induced male C57BL/6J mouse obesity model assessed as downregulation of Acaca-gene level at 15 mg/kg, po administered three times per week and measured after 5 weeks by RT-qPCT analysis; assay type: functional, organism-based
Hepatocyte [17] = test: Inhibition of Srebp-1c level in mouse hepatocyte at 10 uM preincubated with compound for 30 mins followed by T0901317 addition and measured after 12 hrs; assay type: functional, cell-based; details: time 12.5 hrs
Mus musculus [18] = test: Anti-lipogenic activity against high fat died induced male C57BL/6J mouse obesity model assessed as reduction AST level in serum at 15 mg/kg, po administered three times per week and measured for 5 weeks; assay type: functional, organism-based
HepG2 [19] = test: Downregulation of SREBP-1c expression in human HepG2 cells at 5 uM pretreated with compound for 30 mins followed by T0901317 addition and measured after 12 hrs in presence of compound C by immunoblot analysis; assay type: functional, cell-based; details: time 12.5 hrs
[20] = Stability in rat plasma measured after 120 mins by LC-MS/MS analysis; assay type: ADME, cell-free; details: read-out: Stability
HepG2 [21] = test: Effect on SREBP-1a in human HepG2 cells at 10 uM pretreated with compound for 30 mins followed by T0901317 addition and measured after 12 hrs by immunoblot analysis; assay type: functional, cell-based; details: time 12.5 hrs
HepG2 [22] = test: Activation of AMPK in human HepG2 cells assessed as increase in ratio of ACACA phosphorylation to total ACACA at 5 uM pretreated with compound for 30 mins followed by T0901317 addition and measured after 12 hrs by immunoblot analysis; assay type: cell-based; details: filed as activator, time 12.5 hrs
[23] = Stability in human plasma measured after 120 mins by LC-MS/MS analysis; assay type: ADME, cell-free; details: read-out: Stability
[24] = Metabolic stability in mouse liver microsomes at 1 uM measured after 30 mins in presence of NADPH regeneration system by LC-MS/MS analysis; assay type: ADME, Microsome; details: read-out: Stability
Hepatocyte [25] = test: Effect on Cpt1 gene expression in mouse hepatocyte; assay type: functional, cell-based
Hepatocyte [26] = test: Effect on Ppara gene expression in mouse hepatocyte; assay type: functional, cell-based
HepG2 [27] = test: Downregulation of LXR level in human HepG2 cells at 10 uM preincubated for 30 mins followed by OSS128167 addition and measured after 12 hrs; assay type: functional, cell-based; details: time 12.5 hrs
Hepatocyte [28] = test: Effect on Acad-1 gene expression in mouse hepatocyte; assay type: functional, cell-based
Mus musculus [29] = test: Anti-lipogenic activity against high fat died induced male C57BL/6J mouse obesity model assessed as reduction in lipid droplet formation at 15 mg/kg, po administered three times per week and measured for 5 weeks by H and E staining based analysis; assay type: functional, organism-based
[30] = Stability in mouse plasma measured after 120 mins by LC-MS/MS analysis; assay type: ADME, cell-free; details: read-out: Stability

COc1ccccc1Nc1c(N[C@H]2CC[C@H](Oc3ccc([N+](=O)[O-])cc3)CC2)c(=O)c1=O
half-life [1]: 1.4 h | Activity (Mus musculus [2]): Active | IC50 [3]: 33.2 µM | Activity (HepG2 [4]): Active | Activity (Mus musculus [5]): Active | Activity (Hepatocyte [6]): inactive | Activity (HepG2 [7]): Active | Activity (Mus musculus [8]): Active | Activity (Mus musculus [9]): inactive | inhibition at 0.25 h, 10 µM (CYP1A2): 98% | Activity (Hepatocyte [10]): inactive | Activity (HepG2 [11]): inactive | Activity (Mus musculus [12]): Active | Activity (HepG2 [13]): Active | half-life [14]: 1.4 h | Activity (HepG2 [15]): Active | Activity (Mus musculus [16]): Active | inhibition (Hepatocyte [17]): Active | Activity (Mus musculus [18]): Active | Activity (HepG2 [19]): inactive | remaining at 2 h [20]: 96.2% | Activity (HepG2 [21]): inactive | Activity (HepG2 [22]): Active | remaining at 2 h [23]: 94.6% | remaining at 0.5 h, 1 µM [24]: 46.9% | Activity (Hepatocyte [25]): inactive | Activity (Hepatocyte [26]): inactive | Activity (HepG2 [27]): inactive | Activity (Hepatocyte [28]): inactive | Activity (Mus musculus [29]): Active | remaining at 2 h [30]: > 100%
